From patent US20220257722A1, “COMPOSITIONS AND METHODS OF TREATING AND PREVENTING SYSTEMIC COMPLICATIONS OF ACUTE ILLNESS” (United States Government As Represented By The Department …, priority 2019, published 2022)

Tests used:
rat jejunal mucosa = test: LPS mucosal-to-serosal transport in Ussing-chambered rat jejunal mucosa (LAL test); assay type: cell-based; conditions: for OA/TCA-augmented LPS transport (t=30-45 min): mucosal LPS 10 μg/ml + OA 30 mM/TCA 0.1 mM; for OA/TCA-augmented LPS transport (t=30-45 min) / LPS transport at t=15 min (LPS alone, absence of OA/TCA): drug added 10 or 15 min before LPS; for LPS transport at t=15 min (LPS alone, absence of OA/TCA): mucosal LPS 10 μg/ml
Description: Short-circuit current measurements in Ussing chambered preparations. Mucosa-submucosa preparations were prepared from the mid-jejunum (˜20 cm from the pyloric ring) by muscle stripping using fine forceps under a stereomicroscope. Two or four preparations were prepared from one animal. The tissue was then mounted between two hemi-sliders with an aperture=0.3 cm^2 (Physiologic Instruments, San Diego, Calif., USA). Chambers were bathed with serosal and luminal bathing solutions in a volume of 4 ml each, maintained at 37° C. using a water recirculating heating system. The serosal Krebs-Ringer solution contained (in mM) NaCl, 117; KCl, 4.7; MgCl2, 1.2; NaH2PO4, 1.2; CaCl2, 2.5; NaHCO3, 25; glucose, 11; and bubbled with 95% O2-5% CO2 to maintain pH at 7.4. The luminal bathing solution contained NaCl, 136; KCl, 2.6; CaCl2, 1.8; HEPES, 10 (pH 7.0); mannitol, 11; and bubbled with 100% O2. The tissues were short-circuited by a voltage clamp (VCC MC6, Physiologic Instruments) at zero potential difference with automatic compensation for solution resistance. Short-circuit current (Isc) was continuously measured with tissue conductance (Gt) and TEER (Ω·cm^2) determined every 20 sec in order to assess the tissue integrity during the LPS and lipid exposure. The current was recorded by the DataQ system (Physiologic Instruments). IND (10 μM) was added to the serosal bath to eliminate the effects of endogenous prostaglandin production. The tissues were stabilized for ˜30 min before the addition of test chemicals.
LPS movement from mucosal to serosal solution. LPS movement m-to-s was assessed using a LAL test kit (Pierce Chromogenic Endotoxin Quant Kit, Pierce Biotechnology, Rockford, Ill., USA), which eliminates non-specific detection of (1,3)-β-D-glucan, then reduces false-positive LPS measurements. After tissue stabilization, time was set as t=0 min. Fifty μl of the serosal solution was collected at 0 min as a blank sample, followed by collection at t=15, 30 and 45 min. At t=0 min, LPS (10 μg/ml) was added into the mucosal solution. Vehicle (PBS alone), TCA alone (0.1 mM) in PBS or OA (3, 10, 30 mM) with TCA (0.1 mM) in PBS was added into the mucosal solution at t=15 min. The tissues were pretreated with drugs 10 or 15 min before the addition of LPS (i.e. at t=−10 or −15 min). The collected serosal solutions were kept at −80° C. until use. LPS content in the serosal solutions was measured with the LAL test according to the manufacturer's protocol. The value of background at t=0 min was subtracted and the serosal LPS appearance was expressed as Δ[LPS] (EU/ml). In some experiments, FITC-LPS (10 μg/ml) was used instead of LPS. Serosal FITC-LPS content was assessed by FITC fluorescence intensity measurement using a multi-mode microplate reader (Synergy-2, BioTek Instruments, Inc., Winooski, Vt., USA). To detect macromolecule m-to-s movement across the mucosa, FD4 (0.1 mM) was applied into the mucosal bath and serosal FD4 content was assessed by FITC fluorescence intensity measurement.
Ussing chamber study: drug treatment. The following drugs were pretreated by addition to the mucosal (m) or serosal (s) bath 10 or 15 min before LPS addition to the mucosal bath: the lipid raft inhibitor MβCD (1 mM, m), the CD36 inhibitor SSO (0.1 mM, m), the muscarinic agonist CCh (10 μM, s), a competitive substrate for IAP (IAP inhibitor) GP (10 mM, m) (47), GLP-2 (100 nM, s), the dipeptidyl peptidase-4 (DPP4) inhibitor NVP-728 (10 μM, s) (36), the stable GLP-2 analog TDG (100 nM) (13), the insulin-like growth factor-1 (IGF-1) receptor tyrosine kinase inhibitor NVP-AEW-541 (10 μM, s) (22), the epidermal growth factor (EGF) tyrosine kinase inhibitor PD153035 (1 μM, s) (6), the nitric oxide (NO) synthase (NOS) inhibitor L-NAME (0.1 mM, s) and the selective VPAC1 antagonist PG97-269 (1 μM) (26).

rat small intestine = test: LPS-induced small intestinal FD4 paracellular permeability in vivo (PV and arterial FD4); conditions: for TDG-induced inhibitory effect on PV FD4 levels: LPS 6 hr + TDG 6 hr
Description: LPS treatment. Animals were treated with LPS (5 mg/kg, ip) once at 9 am. For the acute experiments, the animals were fasted overnight and were treated with LPS 1, 3, or 6 hr before the anesthesia for small intestinal perfusion of FD4 as described herein. For the 24-hr experiments, the animals fed ad libitum were treated with LPS 24 hr before anesthesia induction used for the perfusion study. As a control, saline was injected ip at the corresponding time before the experiments. The animal groups were expressed as control, LPS 1 hr, LPS 3 hr, LPS 6 hr, and LPS 24 hr.
Small intestinal perfusion. The small intestinal perfusion from the duodenum, and portal vein (PV) cannulation were prepared by the modified methods. Under isoflurane anesthesia (2%), the animal was placed […] on a recirculating heating block system (Summit Medical Systems, Bend, Oreg., USA) in order to maintain body temperature at 36-37° C. Prewarmed saline was infused via the right femoral vein at 1.08 ml/h using a Harvard infusion pump (Harvard Apparatus, Holliston, Mass., USA). The abdomen was incised, and the PV was cannulated with a polyethylene (PE)-50 tube attached with 23G needle and fixed by methylacrylate adhesive at the insertion site. The tube was filled with heparinized saline enabling repeated blood sampling. Samples of 0.2 ml PV blood were collected every 15 min, followed by flushing with 0.2 ml heparinized saline. A polyethylene tube (diameter 5 mm) filled with PBS was inserted through the forestomach and tied at 0.5 cm caudal from the pyloric ring. After bolus perfusion of 2-ml phosphate buffer saline (PBS, 10 mM, pH 7.4) into the duodenum from the tube, followed by stabilization for ˜30 min, the time was set as t=0. FD4 (0.1 mM) in 10-ml PBS was slowly perfused at t=0 min for 30 sec. Blood samples were collected into a 0.5-ml tubes containing 1-μl each of EDTA (0.5 M) and the dipeptidyl peptidase-4 (DPP4) inhibitor NVP-728 (1 mM), and immediately centrifuged at 5,000× g for 5 min, after which the plasma was stored on ice or at −80 ° C. until use. At 90 min, after collection of PV samples, arterial blood was taken from abdominal aorta, followed by euthanasia by thoracotomy.
Appearance of FD4 into the PV and arterial plasma was assessed by fluorescence intensity measurement using a multi-mode microplate reader (Synergy-2, BioTek Instruments, Inc., Winooski, VT, USA). Fluorescence intensity in t=0 sample as background was subtracted from the fluorescence values measured in other time point samples. FD4 content was calculated according to the standard curve generated each time of measurement.
Drug treatment for the intestinal perfusion study. The following drugs were administered at the time after LPS treatment: the GLP2R partial agonist/antagonist GLP-2(3-33) (1 mg/kg; 280 nmol/kg, ip) was given immediately after LPS treatment (0 hr after LPS treatment); GLP-2 (380 μg/kg; 100 nmol/kg, ip) was given 6 hr after LPS treatment; a stable GLP-2 analog TDG (50 μg/kg; 13.3 nmol/kg) was ip injected 0, 3, 6, or 12 hr after LPS treatment or iv injected at t=0 min just before the perfusion of FD4 solution (6 or 24 hr after LPS treatment). In acute experiments, TDG was iv injected at t=0 min (6 hr after LPS treatment) with or without the pretreatment of the selective IGF1 receptor (IGF1R) tyrosine kinase inhibitor AEW541 (0.1 mg/kg, iv), the selective EGF receptor (EGFR) tyrosine kinase inhibitor PD153035 (10 μg/kg, iv) or PG97-269 (1 mg/kg, iv) at t=−10 min, or the co-perfusion of L-NAME (0.1 mM, pf) with FD4 solution.

[1] = pig, in vivo; cited from earlier work
[2] = inhibitor iv at t=-10 min or co-perfused
[3] = inhibitor serosal before GLP-2 + NVP-728
[4] = LPS 6 hr model, GLP-2(3-33) 1 mg/kg ip immediately after LPS
[5] = LPS 24 hr model, GLP-2 380 μg/kg ip 6 hr after LPS

Compound: C[N+](C)(C)CCOC(N)=O [CCh, carbachol]
- OA/TCA-augmented LPS transport (t=30-45 min) (rat jejunal mucosa): further increased
- LPS transport at t=15 min (LPS alone, absence of OA/TCA) (rat jejunal mucosa): increased

Compound: O=P(O)(O)OCC(O)CO (stereo not drawn) [GP, glycerol phosphate]
- OA/TCA-augmented LPS transport (t=30-45 min) (rat jejunal mucosa): further increased
- LPS transport at t=15 min (LPS alone, absence of OA/TCA) (rat jejunal mucosa): no effect

Compound: N#Cc1ccc(NCCNCC(=O)N2CCC[C@H]2C#N)nc1 [NVP-728]
- OA/TCA-augmented LPS transport (t=30-45 min) (rat jejunal mucosa): no effect
- LPS transport at t=15 min (LPS alone, absence of OA/TCA) (rat jejunal mucosa): no effect

Compound: Nc1ncnc2c1c(-c1cccc(OCc3ccccc3)c1)cn2[C@H]1C[C@@H](CN2CCC2)C1 [NVP-AEW-541]
- TDG-induced inhibitory effect on PV FD4 levels (rat small intestine; [2]): no effect

Compound: COc1cc2ncnc(Nc3cccc(Br)c3)c2cc1OC [PD153035]
- TDG-induced inhibitory effect on PV FD4 levels (rat small intestine; [2]): no effect
- Arterial FD4 levels in LPS 6 hr + TDG 6 hr rats (rat small intestine; t=90 min, inhibitor iv at t=-10 min or co-perfused): not affected
- amount of LPS transport after addition of OA/TCA, in presence of GLP-2 + NVP-728 (rat jejunal mucosa; [3]): further increased
- amount of LPS transport at t=15 min (prior to OA/TCA exposure), in presence of GLP-2 + NVP-728 (rat jejunal mucosa; [3]): increased

Compound: GLP-2(3-33): GLP-2 receptor partial agonist/antagonist; truncated GLP-2 peptide missing the first 2 amino acids (DGSFSDEMNTILDNLATRDFINWLIQTKITD; Glucagon-like peptide 2; UniProt P06883 148-178, looked up, fragment)
- PV FD4 levels at t=60-90 min (rat small intestine; [4]): further increased
- arterial FD4 levels at t=90 min (rat small intestine; [4]): further increased
- OA/TCA-augmented LPS transport (t=30-45 min) (rat jejunal mucosa): no effect
- LPS transport at t=15 min (LPS alone, absence of OA/TCA) (rat jejunal mucosa): no effect

Compound: HADGSFSDEMNTILDNLATRDFINWLIQTKITD [GLP-2, Glucagon-like peptide-2; rat GLP-2 from Tocris used in the experiments]
- PV FD4 levels (rat small intestine; [5]): reduced
- arterial FD4 levels (rat small intestine; [5]): reduced
- t1/2 of exogenous GLP-2 [1]: ~7 min
- LPS transport during OA/TCA exposure period, GLP-2 with NVP-728 (rat jejunal mucosa; GLP-2 100 nM + DPP4 inhibitor NVP-728 10 μM, serosal): inhibited
- OA/TCA-augmented LPS transport (t=30-45 min) (rat jejunal mucosa): no effect
- LPS transport at t=15 min (LPS alone, absence of OA/TCA) (rat jejunal mucosa): no effect
